Source: patent EP0414533A1, “Use of iodopropargyl esters of alpha-amino acid derivatives as antimicrobial agents” (ROHM AND HAAS COMPANY, priority 1989, dated 1991)
Values after ≈ are worked out from the molar mass of the structure shown. Read-outs that look alike come from different tables or passages of the source.

How the values were obtained:
ALT = assay: In-vitro plant fungicide test; type: cell-based; settings: Table IVb, read-out: % Control at (ppm) indicated ALT
Botrytis cinerea (BOC) = assay: In-vitro plant fungicide test; type: cell-based; settings: Botrytis cinerea
CER = assay: In-vitro plant fungicide test; type: cell-based; settings: Table IVb, read-out: % Control at (ppm) indicated CER
COL = assay: In-vitro plant fungicide test; type: cell-based; settings: Table IVb, read-out: % Control at (ppm) indicated COL
[1] = test system: Cochliobolus sativus (HEL); assay: In-vitro plant fungicide test; type: cell-based; settings: Bipolaris sorokiniana
MON = assay: In-vitro plant fungicide test; type: cell-based; settings: Table IVb, read-out: % Control at (ppm) indicated MON
PSH = assay: In-vitro plant fungicide test; type: cell-based; settings: Table IVb, read-out: % Control at (ppm) indicated PSH
Pythium ultimum (PYU) = assay: In-vitro plant fungicide test; type: cell-based; settings: Globisporangium ultimum
Rhizoctonia solani (RHI) = assay: In-vitro plant fungicide test; type: cell-based; settings: Rhizoctonia solani
Septoria nodorum (SEP) = assay: In-vitro plant fungicide test; type: cell-based; settings: Parastagonospora nodorum
[2] = test system: Xanthomonas campestris (XAN); assay: In-vitro plant fungicide test; type: cell-based; settings: Xanthomonas campestris; 25 ppm; Table IVa; read-out: % Control at 25 ppm XAN
8 FUNGI = assay: Microbicides secondary test against 8 fungi on Mycophile Agar at pH 5.0 (Table VI); type: cell-based; design: key: 1= no growth; 0= growth of the indicated fungi at dose indicated in ppm; settings: for ANIG growth: Aspergillus niger; for APUL growth: Aureobasidium pullulans; for CGLO growth: Chaetomium globosum; for CRES growth: Cladosporium resinae; for GTRA growth: Gloeophyllum trabeum; for PFUN growth: Penicillium funiculosum; for RRUB growth: Rhodotorula rubra; for SSER growth: Sacharomyces cerevisiae
From the text: The results of the minimum inhibitory concentration (MIC) tests of compounds of this invention are shown in Tables IIIa IIIb, IIIc, V, VI, VII, and VIII against the microorganisms shown in Table IX.

THREE FUNGI = assay: MIC test against three fungi in Mycophile Broth, pH 5.0, read after 8 days (Table VII); type: cell-based; settings: 192 h, serial dilutions from 50 ppm, read after 8 days of incubation
[3] = test system: Pseudomonas fluorescens (PSFL); assay: Minimum inhibitory concentration (MIC), broth two-fold serial dilution test; settings: Pseudomonas fluorescens, IIIB, read-out: MIC (G-) PSFL, trypticase soy broth (complex media); Table IIIb
Escherichia coli (ECOL) = assay: as above; settings: Escherichia coli, IIIB, read-out: MIC (G-) ECOL, trypticase soy broth (complex media); Table IIIb

CC(=O)NCC(=O)OCC#CI [Compound 28, N-acetylglycine iodopropargyl ester]
inhibition of growth at 1.5 ppm (ALT; 1.5 ppm): 0% | inhibition of growth at 3 ppm (ALT; 3 ppm): 0% | inhibition of growth at 6 ppm (ALT; 6 ppm): 75% | inhibition of growth at 12 ppm (ALT; 12 ppm): 100% | inhibition of growth at 25 ppm (ALT; 25 ppm): 100% | inhibition of growth at 0.2 ppm (ALT; .2 ppm): 0% | inhibition of growth at 0.4 ppm (ALT; .4 ppm): 0% | inhibition of growth at 0.8 ppm (ALT; .8 ppm): 0% | inhibition of growth at 1.5 ppm (Botrytis cinerea (BOC); 1.5 ppm, Table IVb, read-out: % Control at (ppm) indicated BOC): 0% | inhibition of growth at 6 ppm (Botrytis cinerea (BOC); 6 ppm, Table IVb, read-out: % Control at (ppm) indicated BOC): 0% | inhibition of growth at 25 ppm (Botrytis cinerea (BOC); Table IVa, *=Phytotoxic, read-out: % Control at 25 ppm BOC): 100% | inhibition of growth at 25 ppm (Botrytis cinerea (BOC); Table IVb, read-out: % Control at (ppm) indicated BOC): 100% | inhibition of growth at 0.2 ppm (Botrytis cinerea (BOC); .2 ppm, Table IVb, read-out: % Control at (ppm) indicated BOC): 0% | inhibition of growth at 0.4 ppm (Botrytis cinerea (BOC); .4 ppm, Table IVb, read-out: % Control at (ppm) indicated BOC): 0% | inhibition of growth at 0.8 ppm (Botrytis cinerea (BOC); .8 ppm, Table IVb, read-out: % Control at (ppm) indicated BOC): 0% | inhibition of growth at 1.5 ppm (CER; 1.5 ppm): 0% | inhibition of growth at 6 ppm (CER; 6 ppm): 100% | inhibition of growth at 25 ppm (CER; 25 ppm): 100% | inhibition of growth at 0.2 ppm (CER; .2 ppm): 0% | inhibition of growth at 0.4 ppm (CER; .4 ppm): 0% | inhibition of growth at 0.8 ppm (CER; .8 ppm): 0% | inhibition of growth at 1.5 ppm (COL; 1.5 ppm): 0% | inhibition of growth at 3 ppm (COL; 3 ppm): 0% | inhibition of growth at 6 ppm (COL; 6 ppm): 0% | inhibition of growth at 12 ppm (COL; 12 ppm): 0% | inhibition of growth at 25 ppm (COL; 25 ppm): 50% | inhibition of growth at 0.2 ppm (COL; .2 ppm): 0% | inhibition of growth at 0.4 ppm (COL; .4 ppm): 0% | inhibition of growth at 0.8 ppm (COL; .8 ppm): 0% | inhibition of growth at 1.5 ppm ([1]; 1.5 ppm, Table IVb, read-out: % Control at (ppm) indicated HEL): 0% | inhibition of growth at 6 ppm ([1]; 6 ppm, Table IVb, read-out: % Control at (ppm) indicated HEL): 100% | inhibition of growth at 25 ppm ([1]; Table IVa, *=Phytotoxic, read-out: % Control at 25 ppm HEL): 100% | inhibition of growth at 25 ppm ([1]; Table IVb, read-out: % Control at (ppm) indicated HEL): 100% | inhibition of growth at 0.2 ppm ([1]; .2 ppm, Table IVb, read-out: % Control at (ppm) indicated HEL): 0% | inhibition of growth at 0.4 ppm ([1]; .4 ppm, Table IVb, read-out: % Control at (ppm) indicated HEL): 0% | inhibition of growth at 0.8 ppm ([1]; .8 ppm, Table IVb, read-out: % Control at (ppm) indicated HEL): 0% | inhibition of growth at 1.5 ppm (MON; 1.5 ppm): 0% | inhibition of growth at 6 ppm (MON; 6 ppm): 100% | inhibition of growth at 25 ppm (MON; 25 ppm): 100% | inhibition of growth at 0.2 ppm (MON; .2 ppm): 0% | inhibition of growth at 0.4 ppm (MON; .4 ppm): 0% | inhibition of growth at 0.8 ppm (MON; .8 ppm): 0% | inhibition of growth at 1.5 ppm (PSH; 1.5 ppm): 95% | inhibition of growth at 6 ppm (PSH; 6 ppm): 100% | inhibition of growth at 25 ppm (PSH; 25 ppm): 100% | inhibition of growth at 0.2 ppm (PSH; .2 ppm): 0% | inhibition of growth at 0.4 ppm (PSH; .4 ppm): 0% | inhibition of growth at 0.8 ppm (PSH; .8 ppm): 0% | inhibition of growth at 1.5 ppm (Pythium ultimum (PYU); 1.5 ppm, Table IVb, read-out: % Control at (ppm) indicated PYU): 0% | inhibition of growth at 6 ppm (Pythium ultimum (PYU); 6 ppm, Table IVb, read-out: % Control at (ppm) indicated PYU): 100% | inhibition of growth at 25 ppm (Pythium ultimum (PYU); Table IVa, read-out: % Control at 25 ppm PYU): 100% | inhibition of growth at 25 ppm (Pythium ultimum (PYU); Table IVb, read-out: % Control at (ppm) indicated PYU): 100% | inhibition of growth at 0.2 ppm (Pythium ultimum (PYU); .2 ppm, Table IVb, read-out: % Control at (ppm) indicated PYU): 0% | inhibition of growth at 0.4 ppm (Pythium ultimum (PYU); .4 ppm, Table IVb, read-out: % Control at (ppm) indicated PYU): 0% | inhibition of growth at 0.8 ppm (Pythium ultimum (PYU); .8 ppm, Table IVb, read-out: % Control at (ppm) indicated PYU): 0% | inhibition of growth at 1.5 ppm (Rhizoctonia solani (RHI); 1.5 ppm, Table IVb, read-out: % Control at (ppm) indicated RHI): 100% | inhibition of growth at 6 ppm (Rhizoctonia solani (RHI); 6 ppm, Table IVb, read-out: % Control at (ppm) indicated RHI): 100% | inhibition of growth at 25 ppm (Rhizoctonia solani (RHI); Table IVa, read-out: % Control at 25 ppm RHI): 100% | inhibition of growth at 25 ppm (Rhizoctonia solani (RHI); Table IVb, read-out: % Control at (ppm) indicated RHI): 100% | inhibition of growth at 0.2 ppm (Rhizoctonia solani (RHI); .2 ppm, Table IVb, read-out: % Control at (ppm) indicated RHI): 0% | inhibition of growth at 0.4 ppm (Rhizoctonia solani (RHI); .4 ppm, Table IVb, read-out: % Control at (ppm) indicated RHI): 0% | inhibition of growth at 0.8 ppm (Rhizoctonia solani (RHI); .8 ppm, Table IVb, read-out: % Control at (ppm) indicated RHI): 0% | inhibition of growth at 1.5 ppm (Septoria nodorum (SEP); 1.5 ppm, Table IVb, read-out: % Control at (ppm) indicated SEP): 0% | inhibition of growth at 6 ppm (Septoria nodorum (SEP); 6 ppm, Table IVb, read-out: % Control at (ppm) indicated SEP): 0% | inhibition of growth at 25 ppm (Septoria nodorum (SEP); Table IVa, read-out: % Control at 25 ppm SEP): 100% | inhibition of growth at 25 ppm (Septoria nodorum (SEP); Table IVb, read-out: % Control at (ppm) indicated SEP): 100% | inhibition of growth at 0.2 ppm (Septoria nodorum (SEP); .2 ppm, Table IVb, read-out: % Control at (ppm) indicated SEP): 0% | inhibition of growth at 0.4 ppm (Septoria nodorum (SEP); .4 ppm, Table IVb, read-out: % Control at (ppm) indicated SEP): 0% | inhibition of growth at 0.8 ppm (Septoria nodorum (SEP); .8 ppm, Table IVb, read-out: % Control at (ppm) indicated SEP): 0% | inhibition of growth at 25 ppm [2]: 50% | ANIG growth (8 FUNGI; 0.2 PPM): 0 | ANIG growth (8 FUNGI; 1.0 PPM): 0 | ANIG growth (8 FUNGI; 2.5 PPM): 0 | ANIG growth (8 FUNGI; 25 PPM): 1 | APUL growth (8 FUNGI; 0.2 PPM): 0 | APUL growth (8 FUNGI; 1.0 PPM): 0 | APUL growth (8 FUNGI; 2.5 PPM): 0 | APUL growth (8 FUNGI; 25 PPM): 1 | CGLO growth (8 FUNGI; 0.2 PPM): 0 | CGLO growth (8 FUNGI; 1.0 PPM): 0 | CGLO growth (8 FUNGI; 2.5 PPM): 0 | CGLO growth (8 FUNGI; 25 PPM): 1 | CRES growth (8 FUNGI; 0.2 PPM): 0 | CRES growth (8 FUNGI; 1.0 PPM): 0 | CRES growth (8 FUNGI; 2.5 PPM): 0 | CRES growth (8 FUNGI; 25 PPM): 1 | GTRA growth (8 FUNGI; 0.2 PPM): 0 | GTRA growth (8 FUNGI; 1.0 PPM): 0 | GTRA growth (8 FUNGI; 2.5 PPM): 0 | GTRA growth (8 FUNGI; 25 PPM): 1 | PFUN growth (8 FUNGI; 0.2 PPM): 0 | PFUN growth (8 FUNGI; 1.0 PPM): 0 | PFUN growth (8 FUNGI; 2.5 PPM): 0 | PFUN growth (8 FUNGI; 25 PPM): 1 | RRUB growth (8 FUNGI; 0.2 PPM): 0 | RRUB growth (8 FUNGI; 1.0 PPM): 0 | RRUB growth (8 FUNGI; 2.5 PPM): 0 | RRUB growth (8 FUNGI; 25 PPM): 1 | SSER growth (8 FUNGI; 0.2 PPM): 0 | SSER growth (8 FUNGI; 1.0 PPM): 0 | SSER growth (8 FUNGI; 2.5 PPM): 0 | SSER growth (8 FUNGI; 25 PPM): 1 | MIC (THREE FUNGI; Aspergillus niger, read-out: MIC ANIG): 12.5 µg/mL (≈ 44.5 µM) | MIC (THREE FUNGI; Aureobasidium pullulans, read-out: MIC APUL): 50 µg/mL (≈ 178 µM) | MIC (THREE FUNGI; Gloeophyllum trabeum, read-out: MIC GTRA): 6.2 µg/mL (≈ 22.1 µM) | MIC [3]: 63 µg/mL (≈ 224 µM) | MIC (Escherichia coli (ECOL)): 63 µg/mL (≈ 224 µM)
